The values that follow come from patent US11161830B2, “4-pyridone compound or salt thereof, and pharmaceutical composition and formulation including same” (priority 2017, dated 2021).

As a reminder, the IC50 is the concentration needed to halve the response being measured.

Type in all cases: cell-based, hepatitis B virus
One assay deals with HBV (genotype AeUS). Kind of assay: Test Example 2-1: anti-HBV assay in PXB-cells (fresh human hepatocytes). Conditions: Hepatitis B virus, Hepatocyte, PXB-cells infected with HBV genotype AeUS, culture supernatant on day 32 post infection. As to the method: Using fresh human hepatocytes (PXB-cells, manufactured by PhenixBio Co., Ltd.) collected from a PXB mouse (a chimeric mouse with human hepatocytes), the anti-HBV activity of the representative compounds was evaluated in the following procedure.
(§1) The following was used as a medium:
DMEM (manufactured by Sigma)+0.25 μg/mL insulin (manufactured by Wako)+1% penicillin/streptomycin. (manufactured by Sigma)+20 mmol/L HEPES (manufactured by Sigma)+15 μg/mL L-proline (manufactured by Sigma)+50 nmol/L dexamethasone (manufactured by Sigma)+5 ng/mL EGF (manufactured by Peprotech)+0.1 mmol/L ascorbic acid 2-phosphate (manufactured by Wako)+10% FBS+2% DMSO
Each of the test compounds) was further added to the medium to prepare a test solution containing each of the test compounds at various concentrations.
(1) PXB-cells seeded at a seeding density of 2.1×10^5 cells/cm^2 in a 96-well microliter plate were incubated in a 5% CO2 incubator at 37° C. until a day on which the cells were infected.
(2) HBV (genotype AeUS) derived from a PXB mouse serum was suspended in the medium containing 4% PEG-8000, and added to the plate of (1) at about 10 copies/cell such that the PXB cells were infected (100 μL/well), and the plate was incubated in a 5% CO2 incubator at 37° C. for 1 day.
(3) The culture supernatant on day 1 post infection was removed and the cells were washed three times with DMEM containing 10% FBS and 1% penicillin/streptomycin. Then, the medium was added to the plate (100 μL/well) and the plate was incubated in a 5% CO2 incubator at 37° C. for 1 day.
(4) The culture supernatant on day 2 post infection was removed and the cells were washed three times with DMEM containing 10% FBS and 1% penicillin/streptomycin. Then, the medium was added to the plate (100 μL/well) and the plate was incubated in a 5% CO2 incubator at 37° C. for 5 days.
(5) The culture supernatant on day 7 post infection was removed, the medium was added to the plate (100 μL/well), and the plate was incubated in a 5% CO2 incubator at 37° C. for 5 days.
(6) The culture supernatant on day 12 post infection was removed, the medium was added to the plate (100 μL/well), and the plate was incubated in a 5% CO2 incubator at 37° C. for 5 days.
(7) The culture supernatant on day 17 post infection was removed, the test solution was added to the plate (100 μL/well), and the plate was incubated in a 5% CO2 incubator at 37° C. for 5 days. As a control without the compound added, the medium was added to the plate (100 μL/well) and the plate was incubated in a 5% CO2 incubator at 37° C. for 5 days.
(8) The culture supernatant on day 22 post infection was removed, the test solution was added to the plate (100 μL/well), and the plate was incubated in a 5% CO2 incubator at 37° C. for 5 days. As a control without the compound added, the medium was added to the plate (100 μL/well) and the plate was incubated in a 5% CO2 incubator at 37° C. for 5 days.
(9) The culture supernatant on day 27 post infection was removed, the test solution was added to the plate (100 μL/well), and the plate was incubated in a 5% CO2 incubator at 37° C. for 5 days. As a control without the compound added, the medium was added to the plate (100 μL/well) and the plate was incubated in a 5% CO2 incubator at 37° C. for 5 days.
(10) The culture supernatant on day 32 post infection was collected.
(11) The collected culture supernatant on day 32 post infection was purified with a QIAamp (registered trademark) DNA Blood Mini Kit (manufactured by QIAGEN). The amount of HBV-DNA in the obtained solution was absolutely quantified by a real-time PCR method. In addition, the amount of HBsAg in the culture supernatant was absolutely quantified by chemiluminescent enzyme immunoassay using Lumipulse (registered trademark) HBsAg-HQ (manufactured by Fujirebio Inc.). A relative viral load (%) with respect to a control without the compound added was each calculated. […]

Assay [1] deals with HBV. The assay can be described thus: Test Example 1-1: anti-HBV assay in HepG2.2.15 cells (test solution 200 μL/well). Conditions: Hepatitis B virus, culture supernatant. As to the method:
(§2) Using HepG2.2.15 cells (Proc. Natl. Acad. Sci. USA, 84, 1005-1009, 1987) which have an HBV genome introduced into a hepatoblastoma cell line, HepG2, and persistently produce a virus, the anti-HBV activity of the representative compounds was evaluated in the following procedure.
as §1
(§3) DMEM/F-12, GlutaMAX (manufactured by Invitrogen)+5 μg/mL insulin (manufactured by Wako)+1% penicillin/streptomycin (manufactured by Sigma)+10 mmol/L HEPES (manufactured by Sigma)+50 μmol/L hydrocortisone (manufactured by Sigma)+10% FBS
(§4) A mixture of a test compound with dimethyl sulfoxide (DMSO) was further added to the medium to obtain a final concentration of DMSO of 0.25% (v/v), and thus, test solutions containing the test compound at various concentrations were prepared. In addition, a test solution obtained by adding DMSO alone to the medium to obtain a final concentration of 0.25% (v/v) was prepared as a control without addition of a drug.
(§5) (1) The HepG2.2.15 cells were suspended in the medium to prepare a. HepG2.2.15 cell suspension at 4×10^5 cells/mL. The suspension was seeded in a 96-well microtiter plate (100 μL/well) and the plate was incubated in a 5% CO2 incubator at 37° C. for 2 days.
(§6) (2) The culture supernatant was removed and the cells were washed twice with PBS (−) (100 μL/well).
(§7) (3) The test solution (200 μL/well) was added to the plate of (2) and the plate was incubated in a 5% CO2 incubator at 37° C. for 4 days.
(§8) (4) The culture supernatant was removed, the test solution (200 μL/well) was added again to the plate, and the plate was incubated in a 5% CO2 incubator at 37° C. for 3 days.
(§9) (5) The culture supernatant was collected and treated with a mixture of Buffer AL (manufactured by QIAGEN) and Proteinase K (manufactured by Invitrogen). The amount of DNA of HBV (HBV-DNA) in the obtained solution was absolutely quantified by a real-time PCR method. In addition, HBsAg (hepatitis B surface antigen) in the culture supernatant was absolutely quantified by chemiluminescent enzyme immunoassay using Lumipulse (registered trademark) HBsAg-HQ (manufactured by Fujirebio Inc.). The relative viral load (%) of a well with the compound added to a well without the compound added was calculated. An IC50 of the compound was calculated using a FORECAST function (linear regression method) of Microsoft Office Excel 2007 by plotting the logarithm of the concentration against the relative viral load as a real number.
(§10) The IC50 of HBV-DNA was defined as a concentration (or a logarithm dilution of the culture supernatant) of the compound, in which the amount of HBV-DNA is reduced by 50% as compared a control without the compound added.
(§11) In addition, the IC50 of HBsAg was defined as a concentration (or a logarithm dilution of the culture supernatant) of the compound, in which the amount of HBsAg is reduced by 50% as compared a control without the compound added.

Assay [2] has as its system HBV. Kind of assay: Test Example 1-2: anti-HBV assay in HepG2.2.15 cells (test solution 100 μL/well). To be noted: Hepatitis B virus, culture supernatant. As to the method:
as §2, §1, §3, §4, §5, §6, §7, §8, §9, §10, §11
The test was performed by the same method as in Test Example 1-1 except that the amounts of the test solutions of (3) and (4) of Test Example 1-1 was changed to 100 μL/well.

SMILES strings stand for the structures. Where two headings read alike, the source gives them in different places.

As for `O=C(O)c1cn(-c2ccc3nc(NCc4ncccn4)sc3c2)c(-c2ccc(N3CCCC3)cc2)cc1=O` [Example 3-13, 4-oxo-1-(2-((pyrimidin-2-ylmethyl)amino)benzo[d]thiazol-6-yl)-6-(4-(pyrrolidin-1-yl)phenyl)-1,4-dihydropyridine-3-carboxylic acid], the IC50 in the assay with HBV (genotype AeUS) (read-out: IC50 HBV-DNA) is less than 8 nM; in the assay with HBV (genotype AeUS) (read-out: IC50 HBsAg) it was 39 nM; with HBV [1] (read-out: IC50 HBV-DNA), 3.9 nM; in the assay with HBV [1] (read-out: IC50 HBsAg) it was 5.1 nM.
For `Cc1nc2ccc(-n3cc(C(=O)O)c(=O)cc3-c3ccc(N4CCCC4)c(Br)c3)cc2s1` [Example 5-1, 6-(3-bromo-4-(pyrrolidin-1-yl)phenyl)-1-(2-methylbenzo[d]thiazol-6-yl)-4-oxo-1,4-dihydropyridine-3-carboxylic acid], the IC50 in the assay with HBV (genotype AeUS) (read-out: IC50 HBV-DNA) was 200 nM; in the assay on HBV (genotype AeUS) (read-out: IC50 HBsAg), 150 nM; in the assay with HBV [1] (read-out: IC50 HBV-DNA), 3.7 nM; in the assay with HBV [1] (read-out: IC50 HBsAg) it was 6.4 nM.
For `O=C(O)c1cn(-c2ccc3nc(N4CCOCC4)sc3c2)c(-c2ccc(N3CCCC3)c(F)c2)cc1=O` [Example 7, 6-(3-Fluoro-4-(pyrrolidin-1-yl)phenyl)-1-(2-morpholinobenzo[d]thiazol-6-yl)-4-oxo-1,4-dihydropyridine-3-carboxylic acid], the IC50 with HBV (genotype AeUS) (read-out: IC50 HBV-DNA) stood at 12 nM; in the assay with HBV (genotype AeUS) (read-out: IC50 HBsAg), 41 nM; in the assay with HBV [1] (read-out: IC50 HBV-DNA) it was 1.4 nM; in the assay with HBV [1] (read-out: IC50 HBsAg), 3.1 nM.
On to `COCCO[C@@H]1CCN(c2ccc(-c3cc(=O)c(C(=O)O)cn3-c3ccc4nc(C)sc4c3)cc2)C1` [Example 9, (R)-6-(4-(3-(2-Methoxyethoxy)pyrrolidin-1-yl)phenyl)-1-(2-methylbenzo[d]thiazol-6-yl)-4-oxo-1,4-dihydropyridine-3-carboxylic acid], for which the 50% inhibitory concentration (IC50) in the assay with HBV (genotype AeUS) (read-out: IC50 HBV-DNA) amounted to 580 nM; with HBV (genotype AeUS) (read-out: IC50 HBsAg), 330 nM; with HBV [1] (read-out: IC50 HBV-DNA) it was 55 nM; in the assay with HBV [1] (read-out: IC50 HBsAg), 24 nM.
For `CO[C@@H]1CCN(c2ccc(-c3cc(=O)c(C(=O)O)cn3-c3ccc4nc(N5CCOCC5)sc4c3)cc2Cl)C1` [Example 11, (R)-6-(3-Chloro-4-(3-methoxypyrrolidin-1-yl)phenyl)-1-(2-morpholinobenzo[d]thiazol-6-yl)-4-oxo-,4-dihydropyridine-3-carboxylic acid], the IC50 was found to be 28 nM with HBV (genotype AeUS) (read-out: IC50 HBV-DNA), 82 nM in the assay on HBV (genotype AeUS) (read-out: IC50 HBsAg), 13 nM in the assay with HBV [1] (read-out: IC50 HBV-DNA) and 4.9 nM with HBV [1] (read-out: IC50 HBsAg).
Take `Cc1nc2ccc(-n3cc(C(=O)O)c(=O)cc3-c3ccc(N4CCCC4)c(C#N)c3)cc2s1` [Example 16, 6-(3-Cyano-4-(pyrrolidin-1-yl)phenyl)-1-(2-methylbenzo[d]thiazol-6-yl)-4-oxo-1,4-dihydropyridine-3-carboxylic acid]: the IC50 was 470 nM in the assay on HBV (genotype AeUS) (read-out: IC50 HBV-DNA), 190 nM with HBV (genotype AeUS) (read-out: IC50 HBsAg), 18 nM with HBV [1] (read-out: IC50 HBV-DNA) and 15 nM in the assay with HBV [1] (read-out: IC50 HBsAg).
With `COCCO[C@@H]1CCN(c2ccc(-c3cc(=O)c(C(=O)O)cn3-c3ccc4nc(N5CC[C@H](OC)C5)sc4c3)cc2)C1` [Example 21, 6-(4-((R)-3-(2-Methoxyethoxy)pyrrolidin-1-yl)phenyl)-1-(2-((S)-3-methoxypyrrolidin-1-yl)benzo[d]thiazol-6-yl)-4-oxo-1,4-dihydropyridine-3-carboxylic acid], the half-inhibitory concentration (IC50) in the assay on HBV [2] (read-out: IC50 HBV-DNA) worked out at 8.3 nM; in the assay with HBV [2] (read-out: IC50 HBsAg), 17 nM.
Taken in the same sequence, the figures for `COCCO[C@H]1CCN(c2ccc(-c3cc(=O)c(C(=O)O)cn3-c3ccc4nc(N5CCOCC5)sc4c3)cc2)C1` [Example 22-1, (S)-6-(4-(3-(2-methoxyethoxy)pyrrolidin-1-yl)phenyl)-1-(2-morpholinobenzo[d]thiazol-6-yl)-4-oxo-1,4-dihydropyridine-3-carboxylic acid] were 44 nM and 89 nM.
Turning to `COCCO[C@H]1CCN(c2ccc(-c3cc(=O)c(C(=O)O)cn3-c3ccc4nc(N5CCC[C@@H]5COC)sc4c3)cc2)C1` [Example 22-2, 6-(4-((S)-3-(2-methoxyethoxy)pyrrolidin-1-yl)phenyl)-1-(2-((R)-2-(methoxymethyl)pyrrolidin-1-yl)benzo[d]thiazol-6-yl)-4-oxo-1,4-dihydropyridine-3-carboxylic acid], the IC50 came to 10 nM in the assay with HBV [2] (read-out: IC50 HBV-DNA) and 22 nM in the assay on HBV [2] (read-out: IC50 HBsAg).
Consider `CO[C@@H]1CCN(c2ccc(-c3cc(=O)c(C(=O)O)cn3-c3ccc4nc(N5CC[C@H](N6CCOCC6)C5)sc4c3)cc2F)C1` [Example 23-1, 6-(3-fluoro-4-((R)-3-methoxypyrrolidin-1-yl)phenyl)-1-(2-((S)-3-morpholinopyrrolidin-1-yl)benzo[d]thiazol-6-yl)-4-oxo-1,4-dihydropyridine-3-carboxylic acid], for which the IC50 turned out to be 1.7 nM in the assay with HBV [2] (read-out: IC50 HBV-DNA) and 4.3 nM in the assay on HBV [2] (read-out: IC50 HBsAg).
Regarding `CO[C@@H]1CCN(c2ccc(-c3cc(=O)c(C(=O)O)cn3-c3ccc4nc(N5CC(OC(F)F)C5)sc4c3)cc2F)C1` [Example 23-2, (R)-1-(2-(3-(difluoromethoxy)azetidin-1-yl)benzo[d]thiazol-6-yl)-6-(3-fluoro-4-(3-methoxypyrrolidin-1-yl)phenyl)-4-oxo-1,4-dihydropyridine-3-carboxylic acid], the IC50 in the assay with HBV [2] (read-out: IC50 HBV-DNA) came to 0.96 nM; in the assay with HBV [2] (read-out: IC50 HBsAg) it was 2.8 nM.
